Source: patent US10434083B2, “Transmammary delivery of cyclooxygenase-2 inhibitors for analgesia in neonates” (Iowa State University Research Foundation, Inc., priority 2018, dated 2019)
Where “and” joins values, the source holds several entries; their conditions need not be identical. Equal entries are not always repeated. Entries after “also recorded” stand apart in the source; their conditions may differ.

Tests used:
[1] = Total firocoxib exposure in piglets as a percentage of sow AUC; format: in vivo, swine
Description: The relative transfer of firocoxib from medicated sows to piglets was evaluated by comparing the piglet plasma drug concentration as a percentage of the sow plasma drug concentration at each time point. Total piglet exposure to firocoxib via milk consumed from treated dams was evaluated by comparing the firocoxib AUC for the piglets with the drug AUC calculated for the corresponding dams from each treatment. Exposure percentages were determined using the equation:
[formula] Statistical Analysis

plasma cortisol = test: Plasma cortisol concentrations in piglets after processing (castration, tail docking, teeth clipping); format: in vivo, swine
Description: Castration, teeth clipping, and tail docking were completed for each male piglet between the 6-h and 8-h blood collection time points. […] Castration was performed using a number 10 scalpel blade to making two vertical incisions approximately 2-3 cm long in the skin covering the testicles. The testicles were then marsupialized, and manual pressure was applied to the spermatic cord until it separated from the piglet's body. Side-cutter pliers were used to remove the tail at the 6th coccygeal vertebral body, and the canine teeth were filed flush with the gingival tissue.
To accommodate blood volume restrictions, blood samples for cortisol determination were collected from three randomly selected piglets/litter (two male and one female piglet at each time point) prior to processing (6 h after firocoxib injection in the sow) and after processing at approximately […] after drug injection in the sow. These time points corresponded to approximately 0, 2, 6, 18, 42, 66 and 90 h after processing. The blood for cortisol analysis was collected in 3-mL heparinized blood collection tubes (BD Vacutainer, Franklin Lakes, N.J.) and then centrifuged for 10 min at 1,500×g. The plasma was collected, then immediately frozen and stored at −80° C. The analyses for plasma cortisol concentrations were performed within 60 d after sample collection and within 10 consecutive days once the analyses were started. Plasma cortisol concentrations were determined using a commercial radioimmunoassay kit (CortiCote I-125, MP Biomedicals, Santa Ana, Calif.). […]
Plasma cortisol concentrations and ADG were analyzed using a nonlinear mixed-effects analysis incorporating both fixed effects and random effects (PROC GLMMIX; SAS university edition v9.04.01, SAS Institute, Cary, N.C.). […]
To account for the fact that not all the piglets were blood sampled at every time point due to blood volume restrictions in piglets, individual piglet peak cortisol concentrations (CortCmax) were calculated for each piglet after processing by visual inspection of the data. […]

[2] = Piglet average daily gain (ADG) from processing to weaning; format: in vivo, swine; details: piglets; for Average Daily Gain (ADG) Mean Difference: least squares means
Description: On day 21 post-drug injection in the sow, the body weight of each sow and piglet was recorded before weaning to calculate average daily weight gain.
Plasma cortisol concentrations and ADG were analyzed using a nonlinear mixed-effects analysis incorporating both fixed effects and random effects (PROC GLMMIX; SAS university edition v9.04.01, SAS Institute, Cary, N.C.). The population cortisol concentrations best fit a lognormal model. Time, treatment and their interaction were designated as fixed effects in the model with piglet nested in sow designated as a random effect. The effect of gender across treatments was examined using ANOVA to confirm that data from female piglets could be pooled to serve as a procedural control. Sow parity was also included as a covariate in the model. Where there was evidence of a treatment-by-time interaction (P<0.1), simple effect comparisons of LS means were conducted using the Tukey-Kramer adjustment for multiple comparisons. ADG outcomes best fit a Gaussian distribution. The effect of gender across treatments was also examined by ANOVA to clarify the effect of drug exposure from the effect of processing. For both outcomes, statistical significance was set a priori at P<0.05.
Eight piglets died between processing and weaning. Average daily gain in body weight (ADG) of the surviving piglets over the 21 d from processing to weaning was calculated by subtracting the body weight at processing from the body weight at weaning and dividing the result by the days from processing to weaning (FIG. 12 and FIG. 13). […] Specifically, ADG increased with the increasing doses of firocoxib administered to the lactating sows via injection.

[3] = Necropsy and histopathology examination of lactating sows at 21 d; details: for Kidney: Focal interstitial nephritis (number of sows) / Kidney: Mild tubular ectasia (number of sows) / Kidney: Within normal limits (number of sows) / Liver: Within normal limits (number of sows) / Small Intestine: Within normal limits (number of sows) / Stomach: Within normal limits (number of sows): 21 d
Description: Thereafter, sows and piglets in all groups were humanely euthanized and examined for macroscopic signs of NSAID toxicity. Necropsies were performed on all animals to inspect for macroscopic signs of NSAID toxicity. Samples of kidney, liver, small intestine and stomach were sectioned into 0.5-1 cm slices and placed in plastic jars containing 10% buffered formalin in a 10:1 formalin:tissue ratio for histopathology examination.
Formalin-fixed sections of kidney, liver, small intestine and stomach from sows and 3 piglets/litter were trimmed and positioned in cassettes loaded into an automated tissue processor (Sakura VIP 5, Sakura Finetek, Torrance, Calif.) for overnight paraffin infiltration. Processed tissues in cassettes were then placed in a paraffin bath (Sakura Tissue-Tek TEC 5, Sakura Finetek, Torrance, Calif.) after which they were removed from the cassette and oriented in molds. […] Tissue sections were cut at 4 microns from the cooled blocks. Paraffin ribbons with tissue were then laid out on a water bath and the floating tissue sections were collected onto microscope slides. The unstained tissue sections were then mounted on the slide and dried at 60° C. for 20 minutes. Finally, the tissue was deparaffinized and rehydrated for staining by transfer through xylene and a series of decreasing concentrations of alcohol to hematoxylin on an automated stainer (Sakura Tissue-Tek Prisma, Sakura Finetek, Torrance, Calif.). After a tap water rinse, the tissue on the slide was counterstained with eosin, dehydrated in an alcohol series, cleared in xylene and cover slipped (Sakura Tissue-Tek Glas g2) prior to histological examination by a veterinary diagnostician with experience in the histological examination of swine tissues.

CC1(C)OC(=O)C(OCC2CC2)=C1c1ccc(S(C)(=O)=O)cc1 [firocoxib]
% Exposure (AUClast, piglet vs sow) ([1]; sow dose 0.5 mg/kg): 41.42% | % Exposure (AUC∞, piglet vs sow) ([1]; sow dose 0.5 mg/kg): 43.51% | % Exposure (AUClast, piglet vs sow) ([1]; sow dose 1.0 mg/kg): 46.29% | % Exposure (AUC∞, piglet vs sow) ([1]; sow dose 1.0 mg/kg): 56.50% | % Exposure (AUClast, piglet vs sow) ([1]; sow dose 1.5 mg/kg): 46.83% | % Exposure (AUC∞, piglet vs sow) ([1]; sow dose 1.5 mg/kg): 53.31% | % Exposure (AUC∞, piglet vs sow) ([1]; sow dose 2.0 mg/kg): 26.75% | % Exposure (AUClast, piglet vs sow) ([1]; sow dose 2.0 mg/kg, 2 mg/kg): 25.32% and 25% | mean plasma cortisol concentration at 2±1 h after processing (plasma cortisol; male piglets, sow dose 2.0 mg/kg vs 0.5 mg/kg (P=0.0397) and 1.0 mg/kg (P=0.0416)): lower mean plasma cortisol concentration | peak plasma cortisol of individual piglets (CortCmax) (plasma cortisol; male piglets, 0.5 mg/kg (P=0.014) and 1.5 mg/kg (P=0.05) groups higher than 2.0 mg/kg): significant treatment effect | plasma cortisol concentrations after processing, dose dependence (plasma cortisol; piglets nursing sows given 0.5-2.0 mg/kg IM): reduces plasma cortisol concentrations after processing in a dose-dependent manner; also recorded: dose-dependent reduction of plasma cortisol concentrations | average daily gain, dose dependence ([2]; 21 d after processing, sow doses 0.5-2.0 mg/kg IM): dose-dependent increase in average daily gain | Average Daily Gain (ADG) Mean Difference ([2]; sow dose 0.5 mg/kg vs 1.0 mg/kg): 2.56 g | Average Daily Gain (ADG) Mean Difference ([2]; sow dose 0.5 mg/kg vs 1.5 mg/kg): -17.98 g | Average Daily Gain (ADG) Mean Difference ([2]; sow dose 0.5 mg/kg vs 2.0 mg/kg): -39.01 g | Average Daily Gain (ADG) Mean Difference ([2]; sow dose 1.0 mg/kg vs 1.5 mg/kg): -20.54 g | Average Daily Gain (ADG) Mean Difference ([2]; sow dose 1.0 mg/kg vs 2.0 mg/kg): -41.57 g | Average Daily Gain (ADG) Mean Difference ([2]; sow dose 1.5 mg/kg vs 2.0 mg/kg): -21.03 g | weight gain (ADG) over 21 d from processing to weaning ([2]; sow dose 2.0 mg/kg vs 0.5 mg/kg (P=0.0076) or 1.0 mg/kg (P=0.0047)): gained more weight | macroscopic lesions on post-mortem examination ([3]; kidney, liver, stomach and small intestines, sows and piglets): No macroscopic lesions were evident | Kidney: Focal interstitial nephritis (number of sows) ([3]; sows, 0.5 mg/kg IM): 2 | Kidney: Mild tubular ectasia (number of sows) ([3]; sows, 0.5 mg/kg IM): 1 | Kidney: Within normal limits (number of sows) ([3]; sows, 0.5 mg/kg IM): 1 | Liver: Within normal limits (number of sows) ([3]; sows, 0.5 mg/kg IM): 4 | Small Intestine: Within normal limits (number of sows) ([3]; sows, 0.5 mg/kg IM): 4 | Stomach: Within normal limits (number of sows) ([3]; sows, 0.5 mg/kg IM): 4 | Kidney: Focal interstitial nephritis (number of sows) ([3]; sows, 1.0 mg/kg IM): 1 | Kidney: Mild tubular ectasia (number of sows) ([3]; sows, 1.0 mg/kg IM): 2 | Kidney: Within normal limits (number of sows) ([3]; sows, 1.0 mg/kg IM): 1 | Liver: Within normal limits (number of sows) ([3]; sows, 1.0 mg/kg IM): 4 | Small Intestine: Within normal limits (number of sows) ([3]; sows, 1.0 mg/kg IM): 4 | Stomach: Within normal limits (number of sows) ([3]; sows, 1.0 mg/kg IM): 4 | Kidney: Focal interstitial nephritis (number of sows) ([3]; sows, 1.5 mg/kg IM): 0 | Kidney: Mild tubular ectasia (number of sows) ([3]; sows, 1.5 mg/kg IM): 1 | Kidney: Within normal limits (number of sows) ([3]; sows, 1.5 mg/kg IM): 3 | Liver: Within normal limits (number of sows) ([3]; sows, 1.5 mg/kg IM): 4 | Small Intestine: Within normal limits (number of sows) ([3]; sows, 1.5 mg/kg IM): 4 | Stomach: Within normal limits (number of sows) ([3]; sows, 1.5 mg/kg IM): 4 | Kidney: Focal interstitial nephritis (number of sows) ([3]; sows, 2.0 mg/kg IM): 2 | Kidney: Mild tubular ectasia (number of sows) ([3]; sows, 2.0 mg/kg IM): 1 | Kidney: Within normal limits (number of sows) ([3]; sows, 2.0 mg/kg IM): 1 | Liver: Within normal limits (number of sows) ([3]; sows, 2.0 mg/kg IM): 4 | Small Intestine: Within normal limits (number of sows) ([3]; sows, 2.0 mg/kg IM): 4 | Stomach: Within normal limits (number of sows) ([3]; sows, 2.0 mg/kg IM): 4 | kidneys with ectatic tubules (number) ([3]; sows, all treatment groups): 5
